PubChem BioAssay (NCI)
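Results reflect a 48-hour exposure of cells in 96-well plates to compound at five concentrations. At the TGI there is no net growth.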

Assays:
Assay in all cases: growth of human tumour cells (NCI), 48 h
786-0 renal = tested on: 786-0 renal
A498 renal = tested on: A498 renal
A549 NSCLC = tested on: A549 NSCLC
ACHN renal = tested on: ACHN renal
CAKI-1 renal = tested on: CAKI-1 renal
DLD-1 colon = tested on: DLD-1 colon
DMS 114 small cell lung = tested on: DMS 114 small cell lung
DMS 273 small cell lung = tested on: DMS 273 small cell lung
EKVX NSCLC = tested on: EKVX NSCLC
HCC-2998 colon = tested on: HCC-2998 colon
HCT-116 colon = tested on: HCT-116 colon
HCT-15 colon = tested on: HCT-15 colon
HL-60(TB) leukemia = tested on: HL-60(TB) leukemia
HOP-18 NSCLC = tested on: HOP-18 NSCLC
HOP-62 NSCLC = tested on: HOP-62 NSCLC
HOP-92 NSCLC = tested on: HOP-92 NSCLC
HT29 colon = tested on: HT29 colon
IGROV1 ovarian = tested on: IGROV1 ovarian
K-562 leukemia = tested on: K-562 leukemia
KM12 colon = tested on: KM12 colon
KM20L2 colon = tested on: KM20L2 colon
LOX IMVI melanoma = tested on: LOX IMVI melanoma
LXFL 529 NSCLC = tested on: LXFL 529 NSCLC
M14 melanoma = tested on: M14 melanoma
M19-MEL melanoma = tested on: M19-MEL melanoma
MALME-3M melanoma = tested on: MALME-3M melanoma
MOLT-4 leukemia = tested on: MOLT-4 leukemia
NCI-H226 lung = tested on: NCI-H226 lung
NCI-H23 lung = tested on: NCI-H23 lung
NCI-H460 lung = tested on: NCI-H460 lung
OVCAR-3 ovarian = tested on: OVCAR-3 ovarian
OVCAR-4 ovarian = tested on: OVCAR-4 ovarian
OVCAR-5 ovarian = tested on: OVCAR-5 ovarian
OVCAR-8 ovarian = tested on: OVCAR-8 ovarian
RPMI-8226 leukemia = tested on: RPMI-8226 leukemia
RXF 393 renal = tested on: RXF 393 renal
RXF-631 renal = tested on: RXF-631 renal
SF-268 CNS = tested on: SF-268 CNS
SF-295 CNS = tested on: SF-295 CNS
SF-539 CNS = tested on: SF-539 CNS
SK-MEL-2 melanoma = tested on: SK-MEL-2 melanoma
SK-MEL-28 melanoma = tested on: SK-MEL-28 melanoma
SK-MEL-5 melanoma = tested on: SK-MEL-5 melanoma
SN12C renal = tested on: SN12C renal
SNB-19 CNS = tested on: SNB-19 CNS
SNB-75 CNS = tested on: SNB-75 CNS
SNB-78 CNS = tested on: SNB-78 CNS
SW-620 colon = tested on: SW-620 colon
TK-10 renal = tested on: TK-10 renal
U251 CNS = tested on: U251 CNS
UACC-257 melanoma = tested on: UACC-257 melanoma
UACC-62 melanoma = tested on: UACC-62 melanoma
UO-31 renal = tested on: UO-31 renal
CCRF-CEM leukemia = tested on: CCRF-CEM leukemia
COLO 205 colon = tested on: COLO 205 colon
NCI-H522 lung = tested on: NCI-H522 lung
SK-OV-3 ovarian = tested on: SK-OV-3 ovarian
SR leukemia = tested on: SR leukemia
XF 498 CNS = tested on: XF 498 CNS

Measured: TGI

N#CC(C(=O)CCC(=O)Nc1ccc(Cl)c(Cl)c1)c1ccc(Cl)cc1 (stereo not drawn)
90.5 µM: K-562 leukemia
not listed: CCRF-CEM leukemia | COLO 205 colon | NCI-H522 lung | SK-OV-3 ovarian | SR leukemia | XF 498 CNS
> 100 µM: all other assays above

COc1cc2c(Cc3cc(OCc4ccccc4)ccc3N)nccc2c(OC)c1OC
not listed: A498 renal | CAKI-1 renal | OVCAR-4 ovarian
> 10 µM: all other assays above

O=C1NN=CN2C(=O)CCC12 (stereo not drawn)
not listed: HOP-18 NSCLC | HT29 colon | MALME-3M melanoma | NCI-H226 lung | OVCAR-5 ovarian | NCI-H522 lung
> 100 µM: all other assays above

CC1CC(=O)c2c(ccc3c2C(=O)c2cccc(O)c2C3=O)C1 (stereo not drawn)
57.2 µM: SK-OV-3 ovarian
22.4 µM: UACC-62 melanoma
27.5 µM: A498 renal
22.9 µM: HCT-15 colon | SNB-75 CNS
26.6 µM: SK-MEL-28 melanoma
29.8 µM: RXF-631 renal
26.1 µM: SNB-19 CNS
29.5 µM: SF-539 CNS
26.5 µM: U251 CNS
25.3 µM: OVCAR-4 ovarian
18.5 µM: DMS 273 small cell lung | HT29 colon
11.1 µM: OVCAR-8 ovarian
25.1 µM: XF 498 CNS
7.97 µM: CCRF-CEM leukemia
26.7 µM: KM12 colon
22.6 µM: SK-MEL-2 melanoma
35.9 µM: SR leukemia
25.2 µM: COLO 205 colon
34.3 µM: NCI-H226 lung
31.1 µM: SF-268 CNS
45.7 µM: SNB-78 CNS
27.1 µM: NCI-H23 lung
24.2 µM: UO-31 renal
19.5 µM: NCI-H460 lung
12.7 µM: NCI-H522 lung
25.4 µM: DMS 114 small cell lung
14.1 µM: LXFL 529 NSCLC
36.1 µM: OVCAR-5 ovarian
18.1 µM: HL-60(TB) leukemia
21.2 µM: 786-0 renal | HOP-18 NSCLC
9.57 µM: MOLT-4 leukemia
20.1 µM: HCT-116 colon
19.2 µM: UACC-257 melanoma
19.8 µM: MALME-3M melanoma
16.5 µM: OVCAR-3 ovarian
13.1 µM: HOP-92 NSCLC
4.96 µM: M19-MEL melanoma
9.56 µM: DLD-1 colon
26.4 µM: A549 NSCLC
10.6 µM: K-562 leukemia
16 µM: LOX IMVI melanoma
10.7 µM: M14 melanoma
8.48 µM: SK-MEL-5 melanoma
39.1 µM: RPMI-8226 leukemia
28 µM: EKVX NSCLC
17.4 µM: SW-620 colon
23.2 µM: HCC-2998 colon | SF-295 CNS
